Data on 25 molecules can be found in patent USRE40793E1, “Bicyclic benzamides of 3-or 4-substituted 4-(aminomethyl)-piperidine derivatives” (Janssen Pharmaceutica, N.V., priority 1997, dated 2009).

In this assay the test system is conscious dogs. Put plainly: Gastric emptying of an acaloric liquid test meal delayed by administration of lidamidine, in conscious dogs. The format is in vivo, beagle dogs. The note with it: conscious dog; for ΔT/T^b (acceleration of gastric emptying of a liquid meal delayed by lidamidine) / change in vivo at 0.0025 mg/kg: dose 0.0025 mg/kg; for ΔT/T^a (acceleration of gastric emptying of a liquid meal delayed by lidamidine) / change in vivo at 0.01 mg/kg: dose 0.01 mg/kg; for change in vivo at 0.0025 mg/kg / change in vivo at 0.01 mg/kg: Canis lupus familiaris; for change in vivo at 0.0025 mg/kg: read-out: ΔT/T^b (acceleration of gastric emptying of a liquid meal delayed by lidamidine); for change in vivo at 0.01 mg/kg: read-out: ΔT/T^a (acceleration of gastric emptying of a liquid meal delayed by lidamidine). The source says:
C. Pharmacological Examples C.1. Gastric Emptying of an Acaloric Liquid Test Meal Delayed by Administration of Lidamidine, in Conscious Dogs
Female beagle dogs, weighing 7-14 kg, were trained to stand quietly in Pavlov frames. They were implanted with a gastric cannula under general anesthesia and aseptic precautions. After a medium laparatomy, an incision was made through the gastric wall in the longitudinal direction between the greater and the lesser curve, 2 cm above the nerves of Latarjet. The cannula was secured to the gastric wall by means of a double purse string suture and brought out via a stab wound at the left quadrant of the hypochondrium. Dogs were allowed a recovery period of at least two weeks. Experiments were started after a fasting period of 24 hours, during which water was available ad libitum. At the beginning of the experiment, the cannula was opened in order to remove any gastric juice or food remnants.
The stomach was cleansed with 40 to 50 ml lukewarm water. The test compound was administered I.V. (in a volume ≦3 ml via the vena cephalica), S.C. (in a volume ≦3 ml) or P.O. (in a volume of 1 ml/kg body weight, applied intragastrically via the cannula with a device that filled the lumen of the cannula: after injection of the test compound; 5 ml NaCl 0.9% was injected in order to correct for the dead space in the injection system). Immediately after administration of the test compound or its solvent, lidamidine (0.63 mg/kg was administered subcutaneously. 30 min later, the cannula was opened to determine the amount of fluid present in the stomach, promptly followed by reintroduction of the fluid. Then the test meal was administered via the cannula. This test meal consisted of 250 ml distilled water containing glucose (5 g/l) as a marker. The cannula remained closed for 30 min, whereafter the gastric contents were drained from the stomach to measure total volume (t=30 min). For later analysis 1 ml of the gastric contents was taken, promptly followed by reintroduction of the rest volume into the stomach. This sequence was repeated 4 times with 30 min intervals (t=60, 90, 120, 150 min).
In the 1 ml samples of the gastric contents, the glucose concentrations were measured on a Hitachi 717 automatic analyzer by the hexokinase method (Schmidt, 1961).
Curves were fitted to the measurement points (glucose versus time) using weighed non-linear regression analysis. Gastric emptying was quantified as the time needed to empty 70% of the meal (t 70%). The control emptying time was calculated as the mean t 70% of the last 5 solvent experiments of the same dog. Acceleration of delayed gastric emptying (Δt) was calculated as the time difference between t 70% compound and t 70% solvent. To correct for variations in emptying rate between dogs, Δt was expressed as % of t 70% solvent (Schuurkes et al. 1992)).

[1] abbreviates: compounds, Δt = t 70% compound minus t 70% solvent, relative to t 70% solvent.

For `CC(C)OCCCN1CC[C@@H](CNC(=O)c2cc(Cl)c(N)c3c2OCC3)[C@H](O)C1` (racemic) [Compound 19], under setting [1], the “ΔT/T^b (acceleration of gastric emptying of a liquid meal delayed by lidamidine)” value is −0.30 and the “ΔT/T^a (acceleration of gastric emptying of a liquid meal delayed by lidamidine)” value was −0.78.

As to `COCCCN1CC[C@@H](CNC(=O)c2cc(Cl)c(N)c3c2OC(C)(C)C3)[C@H](O)C1` (relative stereo) [Compound 40, trans-(+)-4-amino-5-chloro-2,3-dihydro-N-[[3-hydroxy-1-(3-methoxypropyl)-4-piperidinyl]methyl]-2,2-dimethyl-7-benzofurancarboxamide], under setting [1], the “ΔT/T^b (acceleration of gastric emptying of a liquid meal delayed by lidamidine)” value is −0.17 and the “ΔT/T^a (acceleration of gastric emptying of a liquid meal delayed by lidamidine)” value is −0.22.

Regarding `CC(=O)CCCN1CC[C@@H](CNC(=O)c2cc(Cl)c(N)c3c2OCC3)[C@H](O)C1` (relative stereo) [Compound 5, trans-4-amino-5-chloro-2,3-dihydro-N-[[3-hydroxy-1-(4-oxopentyl)-4-piperidinyl]methyl]-7-benzofurancarboxamide], under setting [1], the change in vivo at 0.0025 mg/kg was -57% and the change in vivo at 0.01 mg/kg was -36%.

Take `CC(=O)CCCN1CCC(O)(CNC(=O)c2cc(Cl)c(N)c3c2OC(C)(C)C3)CC1` [Compound 93]: the “ΔT/T^a (acceleration of gastric emptying of a liquid meal delayed by lidamidine)” value under setting [1] was −0.03.

For `CC(=O)CCCN1CC[C@@H](CNC(=O)c2cc(Cl)c(N)c3c2OC(C)(C)C3)[C@H](O)C1` (racemic) [Compound 49], under setting [1], the “ΔT/T^b (acceleration of gastric emptying of a liquid meal delayed by lidamidine)” value is on record as −0.19 and the “ΔT/T^a (acceleration of gastric emptying of a liquid meal delayed by lidamidine)” value is −0.28.

Consider `COCCCN1CC[C@@H](CNC(=O)c2cc(Cl)c(N)c3c2OC(C)(C)C3)[C@H](O)C1` (relative stereo) [Compound 39, trans-(−)-4-amino-5-chloro-2,3-dihydro-N-[[3-hydroxy-1-(3-methoxypropyl)-4-piperidinyl]methyl]-2,2-dimethyl-7-benzofurancarboxamide], for which, under setting [1], the “ΔT/T^b (acceleration of gastric emptying of a liquid meal delayed by lidamidine)” value is −0.43 and the “ΔT/T^a (acceleration of gastric emptying of a liquid meal delayed by lidamidine)” value is given as −0.53.

`Nc1c(Cl)cc(C(=O)NC[C@@H]2CCN(CCOCCO)C[C@H]2O)c2c1CCCO2.O=C(O)C(=O)O` (relative stereo) [Compound 75]: under setting [1], the “ΔT/T^b (acceleration of gastric emptying of a liquid meal delayed by lidamidine)” value is −0.39 and the “ΔT/T^a (acceleration of gastric emptying of a liquid meal delayed by lidamidine)” value is recorded as −0.01.

For the molecule `COCCCN1CC[C@@H](CNC(=O)c2cc(Cl)c(N)c3c2OCC3)[C@H](O)C1` (relative stereo) [Compound 3, trans-4-amino-5-chloro-2,3-dihydro-N-[[3-hydroxy-1-(3-methoxypropyl)-4-piperidinyl]methyl]-7-benzofurancarboxamide], under setting [1], the change in vivo at 0.0025 mg/kg was -51% and the change in vivo at 0.01 mg/kg is -73%.

Take `CCCCN1CC[C@@H](CNC(=O)c2cc(Cl)c(N)c3c2OCCO3)[C@@H](O)C1.Cl.O` (relative stereo) [Compound 54]: under setting [1], the “ΔT/T^b (acceleration of gastric emptying of a liquid meal delayed by lidamidine)” value turned out to be 0.04 and the “ΔT/T^a (acceleration of gastric emptying of a liquid meal delayed by lidamidine)” value is −0.28.

Regarding `COCCCN1CC[C@@H](CNC(=O)c2cc(Cl)c(N)c3c2OCCO3)[C@H](O)C1` (relative stereo) [Compound 57], under setting [1], the “ΔT/T^b (acceleration of gastric emptying of a liquid meal delayed by lidamidine)” value is −0.03 and the “ΔT/T^a (acceleration of gastric emptying of a liquid meal delayed by lidamidine)” value was −0.10.

Consider `CS(=O)(=O)NCCN1CC[C@@H](CNC(=O)c2cc(Cl)c(N)c3c2OCC3)[C@H](O)C1` (racemic) [Compound 20], for which, under setting [1], the “ΔT/T^b (acceleration of gastric emptying of a liquid meal delayed by lidamidine)” value is −0.20 and the “ΔT/T^a (acceleration of gastric emptying of a liquid meal delayed by lidamidine)” value is reported as −0.28.

As for `Nc1c(Cl)cc(C(=O)NC[C@@H]2CCN(CCCO)C[C@H]2O)c2c1CCCO2.O.O` (relative stereo) [Compound 74], the “ΔT/T^a (acceleration of gastric emptying of a liquid meal delayed by lidamidine)” value under setting [1] is listed as −0.51.

Consider `COCCCN1CC[C@@H](CNC(=O)c2cc(Cl)c(N)c3c2OC(C)(C)C3)[C@H](O)C1.O=C(O)C(=O)O` (racemic) [Compound 37], for which, under setting [1], the “ΔT/T^b (acceleration of gastric emptying of a liquid meal delayed by lidamidine)” value is −0.41 and the “ΔT/T^a (acceleration of gastric emptying of a liquid meal delayed by lidamidine)” value was −0.62.

`CO[C@@H]1CN(CCCC(C)=O)CC[C@H]1CNC(=O)c1cc(Cl)c(N)c2c1OCC2` (relative stereo) [Compound 28, trans-4-amino-5-chloro-2,3-dihydro-N-[[3-methoxy-1-(4-oxopentyl)-4-piperidinyl]methyl]-7-benzofurancarboxamide]: under setting [1], the change in vivo at 0.0025 mg/kg is -42% and the change in vivo at 0.01 mg/kg is -56%.

For `CCCCN1CC[C@@H](CNC(=O)c2cc(Cl)c(N)c3c2OC(C)(C)C3)[C@H](OC)C1.O=C(O)C(=O)O` (relative stereo) [Compound 51], the “ΔT/T^a (acceleration of gastric emptying of a liquid meal delayed by lidamidine)” value under setting [1] was −0.45.

As for `CC(=O)CCCN1CC[C@@H](CNC(=O)c2cc(Cl)c(N)c3c2OCCO3)[C@H](O)C1.O` (relative stereo) [Compound 59], under setting [1], the “ΔT/T^b (acceleration of gastric emptying of a liquid meal delayed by lidamidine)” value is on record as −0.15 and the “ΔT/T^a (acceleration of gastric emptying of a liquid meal delayed by lidamidine)” value was −0.13.

`CCCCN1CC[C@@H](CNC(=O)c2cc(Cl)c(N)c3c2OCC3)[C@H](O)C1` (relative stereo) [Compound 2, trans-4-amino-N-[(1-butyl-3-hydroxy-4-piperidinyl)methyl]-5-chloro-2,3-dihydro-7-benzofurancarboxamide]: under setting [1], the change in vivo at 0.0025 mg/kg was -61% and the change in vivo at 0.01 mg/kg is -34%.

On to `CCCCN1CC[C@@H](CNC(=O)c2cc(Cl)c(N)c3c2OCCCO3)[C@H](O)C1.Cl` (relative stereo) [Compound 65], for which the “ΔT/T^a (acceleration of gastric emptying of a liquid meal delayed by lidamidine)” value under setting [1] was −0.07.

Take `CCCCN1CC[C@@H](CNC(=O)c2cc(Cl)c(N)c3c2OCCO3)[C@H](O)C1` (relative stereo) [Compound 55, (trans)-8-amino-N-[(1-butyl-3-hydroxy-4-piperidinyl)methyl]-7-chloro-2,3-dihydro-1,4-benzodioxin-5-carboxamide]: under setting [1], the change in vivo at 0.0025 mg/kg is -18% and the change in vivo at 0.01 mg/kg was -29%.

For `CC(=O)CCCN1CC[C@@H](CNC(=O)c2cc(Cl)c(N)c3c2OCCC3)[C@H](O)C1` (relative stereo) [Compound 80], under setting [1], the “ΔT/T^b (acceleration of gastric emptying of a liquid meal delayed by lidamidine)” value is given as −0.11 and the “ΔT/T^a (acceleration of gastric emptying of a liquid meal delayed by lidamidine)” value is −0.51.

With `CCCCN1CC[C@@H](CNC(=O)c2cc(Cl)c(N)c3c2OC(C)(C)C3)[C@H](O)C1` (racemic) [Compound 36], under setting [1], the “ΔT/T^a (acceleration of gastric emptying of a liquid meal delayed by lidamidine)” value is listed as −0.01.

`CC(=O)CCCN1CC[C@H](CNC(=O)c2cc(Cl)c(N)c3c2OCC3)[C@H](O)C1` (relative stereo) [Compound 4, (cis)-4-amino-5-chloro-2,3-dihydro-N-[[3-hydroxy-1-(4-oxopentyl)-4-piperidinyl]methyl]-7-benzofurancarboxamide]: under setting [1], the change in vivo at 0.0025 mg/kg is -21% and the change in vivo at 0.01 mg/kg is -8%.

For `CC(C)OCCCN1CC[C@@H](CNC(=O)c2cc(Cl)c(N)c3c2OC(C)(C)C3)[C@H](O)C1.O=C(O)/C=C\C(=O)O` (racemic) [Compound 42], the “ΔT/T^a (acceleration of gastric emptying of a liquid meal delayed by lidamidine)” value under setting [1] is −0.12.

For `Nc1c(Cl)cc(C(=O)NC[C@@H]2CCN(CCOCCO)C[C@H]2O)c2c1CCO2` (racemic) [Compound 17], under setting [1], the “ΔT/T^b (acceleration of gastric emptying of a liquid meal delayed by lidamidine)” value is −0.30 and the “ΔT/T^a (acceleration of gastric emptying of a liquid meal delayed by lidamidine)” value is on record as 0.06. Where the note is “intermediates”, the “ΔT/T^b (acceleration of gastric emptying of a liquid meal delayed by lidamidine)” value is given as −0.18 and the “ΔT/T^a (acceleration of gastric emptying of a liquid meal delayed by lidamidine)” value is recorded as −0.28.

On to `N#CCCCN1CC[C@@H](CNC(=O)c2cc(Cl)c(N)c3c2OCC3)[C@H](O)C1` (racemic) [Compound 18], for which, under setting [1], the “ΔT/T^b (acceleration of gastric emptying of a liquid meal delayed by lidamidine)” value is listed as −0.47 and the “ΔT/T^a (acceleration of gastric emptying of a liquid meal delayed by lidamidine)” value is −0.57.
